Experimental data published in US8859584B2, “TRPV1 antagonists” (AbbVie Inc., priority 2011, dated 2014).

Experiments:
human TRPV1 [1] = target: T1, human TRPV1 (Homo sapiens, UniProt Q8NER1); test: Acid Activation Assay (pH 5.0, FLIPR intracellular Ca2+, recombinant HEK293 cells); format: cell-based; settings: percentage of maximal pH 5.0-induced response remaining; HEK293 hTRPV1; max concentration 37.5 μM
T1 construct: expressed in transfected cells
Experimental: (ii) Acid Activation Assay
Dulbecco's modified Eagle's medium (DMEM) with 4.5 mg/mL D-glucose, fetal bovine serum, L-glutamine, and 2-morpholinoethanesulfonic acid (MES) were purchased from Sigma-Aldrich Co. (St. Louis, Mo.). […] The FLIPR® Calcium 4 assay kit was purchased from Molecular Devices (Sunnyvale, Calif.).
(§1) Expression plasmids encoding the hTRPV1 cDNA were transfected into HEK293 cells using Lipofectamine®. Forty-eight hours after transfection, the neomycin-resistant cells were selected with growth medium containing 800 μg/mL Geneticin (Life Technologies, formerly Gibco BRL). Surviving individual colonies were isolated and screened for TRPV1 activity. Cells expressing recombinant TRPV1 were maintained at 37° C. in DMEM containing 4 mM L-glutamine, 300 μg/mL G418 (Calbiochem) and 10% fetal bovine serum under a humidified 5% CO2 atmosphere.
The functional activity of compounds at the TRPV1 receptor was determined by measurement of intracellular Ca^2+ levels ([Ca^2+]i) using the Fluorescence Imaging Plate Reader (FLIPR)TETRA®. […] Compound stocks, 10 mM, were prepared in DMSO, and diluted serially across a 384-well plate using a Bravo BenchCel workstation (Agilent Technologies, Santa Clara, Calif.). On the day prior to the experiment, the recombinant HEK293 cells expressing human TRPV1 (hTRPV1) were removed from tissue culture flasks and plated in growth medium into black-walled clear-bottom 384-well Biocoat™ poly-D-lysine assay plates (BD Biosciences, Bedford, Mass.) using a Multidrop® dispenser (ThermoScientific, Waltham, Mass.). […] The plated cells were incubated for 90-120 min in the dark at 25° C. The test compounds dissolved in DMSO were then added to the plates using an Agilent Bravo workstation (Agilent Technologies Inc., Santa Clara, Calif.). Three minutes later, a pH 5.0 solution was added to each well. Reagents were delivered at a rate of 40 μL/sec, and the final assay volume was 80 μL. Acidic pH solutions were prepared by titration of DPBS/MES with 1 N HCl. The intensity of the fluorescence was captured and digitally transferred to an interfaced PC. The maximum peak measured for the concentration range tested was used to calculate the corresponding peak increase in fluorescence over baseline (relative fluorescence units) which was expressed as the percentage (max % remain) of the maximal pH 5.0-induced response.

human TRPV1 [2] = target: T1, human TRPV1; test: Capsaicin Activation Assay (FLIPR intracellular Ca2+, recombinant HEK293 cells); format: cell-based; settings: recombinant HEK293 cells expressing hTRPV1; 50 nM capsaicin; read-out: human TRPV1 capsaicin IC50
Experimental: (i) Capsaicin Activation Assay
Dulbecco's modified Eagle medium (DMEM) (with 4.5 mg/mL glucose) and fetal bovine serum were obtained from Hyclone Laboratories, Inc. (Logan, Utah). Dulbecco's phosphate-buffered saline (DPBS) (with 1 mg/mL glucose and 3.6 mg/l Na pyruvate, without phenol red), L-glutamine, hygromycin B, and Lipofectamine® were obtained from Life Technologies (Grand Island, N.Y.). G418 sulfate was obtained from Calbiochem-Novabiochem Corp. (San Diego, Calif.). Capsaicin (8-methyl-N-vanillyl-6-nonenamide) was obtained from Sigma-Aldrich, Co. (St. Louis, Mo.). Fluo-4 AM (N-[4-[6-[(acetyloxy)-methoxy]-2,7-difluoro-3-oxo-3H-xanthen-9-yl]-2-[2-[2-[bis[2-[(acetyloxy)methoxy]-2-oxyethyl]amino]-5-methylphenoxy]ethoxy]phenyl]-N-[2-[(acetyloxy)methoxy]-2-oxyethyl]-glycine, (acetyloxy)methyl ester) was purchased from Molecular Probes (Eugene, Oreg.).
as §1
The functional activity of compounds at the TRPV1 receptor was determined by measurement of intracellular Ca^2+ levels ([Ca^2+]i) using the Fluorescence Imaging Plate Reader (FLIPR)TETRA®. All compounds were tested over a 12-point one-third-log concentration range. Compound stocks, 10 mM, were prepared in DMSO, and diluted serially across a 384-well plate using a Bravo BenchCel workstation (Agilent Technologies, Santa Clara, Calif.). A stock concentration of capsaicin (10 mM) was made in DMSO, and diluted in DPBS to a final concentration of 200 nM (4×). On the day prior to the experiment, the recombinant HEK293 cells expressing human TRPV1 (hTRPV1) were removed from tissue culture flasks and plated in growth medium into black-walled clear-bottom 384-well Biocoat™ poly-D-lysine assay plates (BD Biosciences, Bedford, Mass.) using a Multidrop® dispenser (ThermoScientific, Waltham, Mass.). […] The plated cells were incubated for 90-120 minutes in the dark at room temperature and then test compound was added to each well. Three minutes later, 200 nM capsaicin (4×) solution was added to each well in an amount sufficient to provide a final assay volume of 80 μL and capsaicin concentration of 50 nM. Fluorescence readings were made at 1 to 5 second intervals over the course of the experimental run. The peak increase in relative fluorescence units (minus baseline) was calculated, and expressed as a percentage of the 50 nM capsaicin (control) response.

T1 sequence (Q8NER1 whole entry): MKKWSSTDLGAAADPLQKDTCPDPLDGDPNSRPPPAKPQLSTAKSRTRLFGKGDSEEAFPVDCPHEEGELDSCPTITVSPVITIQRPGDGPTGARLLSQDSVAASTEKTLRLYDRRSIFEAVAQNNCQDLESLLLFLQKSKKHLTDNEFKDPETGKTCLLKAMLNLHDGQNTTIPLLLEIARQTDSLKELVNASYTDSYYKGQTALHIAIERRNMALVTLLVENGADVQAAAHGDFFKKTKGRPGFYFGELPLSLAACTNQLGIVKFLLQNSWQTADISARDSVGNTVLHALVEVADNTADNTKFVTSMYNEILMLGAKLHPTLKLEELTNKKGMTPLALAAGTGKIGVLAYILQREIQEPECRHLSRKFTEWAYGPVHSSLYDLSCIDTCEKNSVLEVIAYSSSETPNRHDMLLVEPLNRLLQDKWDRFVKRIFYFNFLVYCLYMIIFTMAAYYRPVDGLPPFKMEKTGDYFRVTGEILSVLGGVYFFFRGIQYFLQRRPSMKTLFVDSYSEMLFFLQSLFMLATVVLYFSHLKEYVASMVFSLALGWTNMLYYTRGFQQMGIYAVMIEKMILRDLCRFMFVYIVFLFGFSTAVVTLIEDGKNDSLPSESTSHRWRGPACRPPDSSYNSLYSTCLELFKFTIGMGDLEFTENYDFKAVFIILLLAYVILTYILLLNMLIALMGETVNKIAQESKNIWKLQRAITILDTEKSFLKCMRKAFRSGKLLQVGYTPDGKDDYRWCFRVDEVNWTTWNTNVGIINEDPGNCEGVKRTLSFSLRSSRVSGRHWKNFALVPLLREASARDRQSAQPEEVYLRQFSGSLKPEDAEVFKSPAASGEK

| Compound | human TRPV1 H+ (max % remain) (human TRPV1 [1]) | IC50 (human TRPV1 [2]) |
| --- | --- | --- |
| C[C@]1(CF)C[C@@H](NC(=O)Nc2c(F)ccc3c2CC(O)C3)c2ccc(Cl)cc2O1 (stereo partly drawn) [Example 25, 1-[(2R,4R)-7-chloro-2-(fluoromethyl)-2-methyl-3,4-dihydro-2H-chromen-4-yl]-3-(5-fluoro-2-hydroxy-2,3-dihydro-1H-inden-4-yl)urea] | 30% | 0.041 µM |
| 1-(5-chloro-2,3-dihydro-1H-inden-1-yl)-3-(7-fluoro-2-hydroxy-2,3-dihydro-1H-inden-4-yl)urea [Example 174] | 29% | 0.42 µM |
| O=C(Nc1cccc2c1C[C@H](O)C2)N[C@H]1COc2ccc(Cl)cc2C1 [Example 89, 1-[(3R)-6-chloro-3,4-dihydro-2H-chromen-3-yl]-3-[(2R)-2-hydroxy-2,3-dihydro-1H-inden-4-yl]urea] | 91% | 0.56 µM |
| CC(C)(C)c1ccc2c(c1)CC[C@H]2NC(=O)Nc1cccc2c1C[C@H](O)C2 [Example 50, 1-[(1R)-5-tert-butyl-2,3-dihydro-1H-inden-1-yl]-3-[(2R)-2-hydroxy-2,3-dihydro-1H-inden-4-yl]urea] | 69% | 0.032 µM |
| O=C(Nc1cccc2c1C[C@H](O)C2)N[C@@H]1CC(CF)(CF)Oc2ccccc21 [Example 69, 1-[(4R)-2,2-bis(fluoromethyl)-3,4-dihydro-2H-chromen-4-yl]-3-[(2R)-2-hydroxy-2,3-dihydro-1H-inden-4-yl]urea] | 91% | 0.4 µM |
| CCC1(CC)C[C@@H](NC(=O)Nc2cccc3c2C[C@H](O)C3)c2ccc(Cl)cc2O1 [Example 54, 1-[(4R)-7-chloro-2,2-diethyl-3,4-dihydro-2H-chromen-4-yl]-3-[(2R)-2-hydroxy-2,3-dihydro-1H-inden-4-yl]urea] | 59% | 0.076 µM |
| CC1(C)C[C@@H](NC(=O)Nc2cccc3c2C[C@H](O)C3)c2ccccc21 [Example 63, 1-[(1R)-3,3-dimethyl-2,3-dihydro-1H-inden-1-yl]-3-[(2R)-2-hydroxy-2,3-dihydro-1H-inden-4-yl]urea] | 86% | 0.14 µM |
| O=C(Nc1cccc2c1CC(O)C2)NC1c2ccccc2OCC1c1ccc(Cl)cc1 (stereo not shown) [Example 115, 1-[3-(4-chlorophenyl)-3,4-dihydro-2H-chromen-4-yl]-3-(2-hydroxy-2,3-dihydro-1H-inden-4-yl)urea] | 94% | 1.1 µM |
| O=C(Nc1cccc2c1C[C@H](O)C2)N[C@@H]1CC(CF)(CF)Oc2c(F)cc(F)cc21 [Example 1, 1-[(4R)-6,8-difluoro-2,2-bis(fluoromethyl)-3,4-dihydro-2H-chromen-4-yl]-3-[(2R)-2-hydroxy-2,3-dihydro-1H-inden-4-yl]urea] | 61% | 0.3 µM |
| O=C(Nc1cccc2c1C[C@H](O)C2)N[C@@H]1CCOc2c1cccc2C(F)(F)F [Example 18, 1-[(2R)-2-hydroxy-2,3-dihydro-1H-inden-4-yl]-3-[(4R)-8-(trifluoromethyl)-3,4-dihydro-2H-chromen-4-yl]urea] | 58% | 0.026 µM |
| Cc1nc(Nc2cccc3c2C[C@H](O)CC3)oc1-c1ccc(C(F)(F)F)cc1 [Example D, reference compound] | 3% | – |
| CC(C)(C)c1ccc2c(c1)CC[C@H]2NC(=O)Nc1cccc2[nH]ncc12 [C, reference compound] | 1% | – |

The remaining lines, values ahead:

| human TRPV1 H+ (max % remain) (human TRPV1 [1]) | IC50 (human TRPV1 [2]) | Compound |
| --- | --- | --- |
| 30% | 0.041 µM | O=C(Nc1cccc2c1C[C@H](O)C2)N[C@@H]1CC(CF)(CF)Oc2cc(OC(F)(F)F)ccc21 [Example 31, 1-[(4R)-2,2-bis(fluoromethyl)-7-(trifluoromethoxy)-3,4-dihydro-2H-chromen-4-yl]-3-[(2R)-2-hydroxy-2,3-dihydro-1H-inden-4-yl]urea] |
| 51% | 0.027 µM | C[C@]1(C(F)F)C[C@@H](NC(=O)Nc2cccc3c2C[C@H](O)C3)c2ccc(Cl)cc2O1 [Example 33, 1-[(2R,4R)-7-chloro-2-(difluoromethyl)-2-methyl-3,4-dihydro-2H-chromen-4-yl]-3-[(2R)-2-hydroxy-2,3-dihydro-1H-inden-4-yl]urea] |
| 15% | 0.71 µM | O=C(Nc1cccc2c1C[C@@H](O)C2)N[C@@H]1CC(CF)(CF)Oc2c(F)cc(F)cc21 [Example 79, 1-[(4R)-6,8-difluoro-2,2-bis(fluoromethyl)-3,4-dihydro-2H-chromen-4-yl]-3-[(2S)-2-hydroxy-2,3-dihydro-1H-inden-4-yl]urea] |
| 39% | 0.042 µM | CC1(C)C[C@@H](NC(=O)Nc2cccc3c2C[C@H](O)C3)c2ccc(OC(F)(F)F)cc2O1 [Example 30, 1-[(4R)-2,2-dimethyl-7-(trifluoromethoxy)-3,4-dihydro-2H-chromen-4-yl]-3-[(2R)-2-hydroxy-2,3-dihydro-1H-inden-4-yl]urea] |
| 4% | 0.35 µM | O=C(Nc1ccc(F)c2c1C[C@H](O)C2)N[C@@H]1CCOc2c(OC(F)(F)F)cccc21 [Example 137, 1-[(2S)-7-fluoro-2-hydroxy-2,3-dihydro-1H-inden-4-yl]-3-[(4R)-8-(trifluoromethoxy)-3,4-dihydro-2H-chromen-4-yl]urea] |
| 0% | 0.027 µM | CC1(C)C[C@@H](NC(=O)Nc2cccc3c2C[C@@H](O)C3)c2ccc(OC(F)(F)F)cc2O1 [Example 72, 1-[(4R)-2,2-dimethyl-7-(trifluoromethoxy)-3,4-dihydro-2H-chromen-4-yl]-3-[(2S)-2-hydroxy-2,3-dihydro-1H-inden-4-yl]urea] |
| 74% | 0.051 µM | CN1CC[C@@H](NC(=O)Nc2cccc3c2C[C@H](O)C3)c2ccc(C(F)(F)F)cc21 [Example 23, 1-[(2R)-2-hydroxy-2,3-dihydro-1H-inden-4-yl]-3-[(4R)-1-methyl-7-(trifluoromethyl)-1,2,3,4-tetrahydroquinolin-4-yl]urea] |
| 56% | 0.51 µM | CC1(C)C[C@@H](NC(=O)Nc2cccc3c2C[C@@H](O)C3)c2ccccc2O1 [Example 82, 1-[(4R)-2,2-dimethyl-3,4-dihydro-2H-chromen-4-yl]-3-[(2S)-2-hydroxy-2,3-dihydro-1H-inden-4-yl]urea] |
| 74% | 0.089 µM | O=C(Nc1cccc2c1C[C@H](O)C2)N[C@@H]1CCOc2cc(C(F)(F)F)ccc21 [Example 21, 1-[(2R)-2-hydroxy-2,3-dihydro-1H-inden-4-yl]-3-[(4R)-7-(trifluoromethyl)-3,4-dihydro-2H-chromen-4-yl]urea] |
